In PubChem BioAssay AID2060484 (Molecular Pharmacology Branch, DTP, NCI, 2025):
“And” between values parts separate entries of the source, which are not always exact repeats. Identical values can stand only once.

System: SUM149PT spheroids with HUVEC/MSC, viability
Assay: Anticancer human tumor SUM149PT cell line growth inhibition [GQUAD];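 also: spheroids exposed to drugs for seven days before readout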;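 as to viability, T/C: percent viability relative to DMSO vehicle control taken as 100%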
Conditions: for viability, T/C: stronger effect = lower value
Excerpt: DNA G-quadruplex Stabilizer Agents in Combinations in Complex Spheroids
A high-throughput screen of multi-cell type tumor spheroids was designed to identify active combinations of DNA G-quadruplex stabilizer agents and targeted small molecules. Complex spheroids include a stromal component modeled by human endothelial cells (HUVEC) and fibroblasts modeled by human mesenchymal stem cells (MSCs). The concentration ranges selected for each drug and investigational agent were based upon clinically achievable concentrations if the clinical Cmax of the agent was known.
Compounds. The drugs and investigational agents: pidnarulex (CX-5461; NSC782164), APTO-253 (NSC789042), BRACO-19 (NSC847499), peposertib (NSC802822), ceralasertib (NSC780249), elimusertib (NSC800525), camonsertib (NSC841442), AZD-1390 (NSC803789), olaparib (NSC753686), talazoparib (NSC767125), ART-558 (NSC835418), sotorasib (NSC818433), MRTX-1133 (NSC836407), SN-38 (NSC673596), topotecan (NSC609699), etoposide (NSC141540), doxorubicin (NSC123127), gemcitabine (NSC613327), 5-fluorouracil (NSC19893), paclitaxel (NSC125973), vemurafenib (NSC761431), panobinostat (NSC761190), R-306465 (JNJ-16241199; NSC773264), adavosertib (NSC754352), TP-3654 (NSC805149), carboplatin (NSC241240), KSQ-4279 (NSC840948), and staurosporine (NSC755774) were obtained from the National Cancer Institute (NCI) Developmental Therapeutics Program Chemical Repository (34). The FDA-approved anticancer drug set is available from the NCI Developmental Therapeutics Program. […] The stock solutions were prepared in dimethyl sulfoxide (DMSO, Sigma-Aldrich, St. Louis, MO, cat. D2650) at 800-fold the tested concentration and stored at -70 degrees C prior to their use. All drugs and investigational agents were tested over a range starting from a high concentration at or near the clinical Cmax and decreasing in half-log increments. If the clinical Cmax for an agent had not been determined, the highest concentration tested was 10 microM.
2.3 Cell Culture. All cells were maintained in an incubator at 37 degrees C and 5% CO2 with 95% humidity. The PDC lines were cultured according to standard operating procedures established by the NCI PDMR. All PDCs were thawed and cultured in Matrigel-coated flasks prepared with a working solution of 1X Ham's F-12 nutrient mix, without supplementation (Invitrogen, cat. 11765054), 100 U/mL penicillin-streptomycin (Invitrogen, cat. 15140122), and 2.5% Matrigel (Corning Inc., cat. 354248) for the first three passages. The 857933-349-R-J2-PDC line was cultured in 6C/Colon 1B media, which includes advanced DMEM/F-12 (Thermo Fisher Scientific, cat. 12634028), 10 mM HEPES (Thermo Fisher Scientific, cat. 15630080), 1X GlutaMAX supplement (Thermo Fisher Scientific, cat. 35050061), 0.1 mg/mL primocin (InvivoGen, cat. ant-pm-2), 10% defined fetal bovine serum, heat inactivated (HyClone Laboratories Inc., cat. SH30070.03HI), 50% L-WRN conditioned media (ATCC, cat. CRL-3276), 1.25 mM N-Acetyl-L-cysteine (Sigma-Aldrich, cat. A9165), 10 mM nicotinamide (Sigma-Aldrich, cat. N0636), 1X B-27 supplement (Thermo Fisher Scientific, cat. 17504044), 1X N-2 supplement (Thermo Fisher Scientific, cat. 17502048), 10 microM Y-27632 dihydrochloride (Tocris Bioscience, cat. 1254), and 50 ng/mL human EGF recombinant protein (Thermo Fisher Scientific, cat. PHG0311). The 485176-168-R4-J1-PDC line was cultured in Panc media, which includes all 6C/Colon 1B media components plus 100 ng/mL human FGF-10 (Thermo Fisher Scientific, cat. 100-26), 500 nM SB-431542 (Selleckchem, cat. S1067), and gastrin (Tocris, cat. 3006).
[…]

[1] = curve of first compound, second compound 0.0316 µM
[2] = curve of first compound, second compound 0.1 µM
[3] = curve of first compound, second compound 0.316 µM
[4] = curve of first compound, second compound 1 µM
[5] = curve of first compound, second compound 3.16 µM
[6] = curve of first compound, second compound 10 µM
[7] = second compound 0.0316 µM, first compound 0.0316 µM
[8] = second compound 0.0316 µM, first compound 0.1 µM
[9] = second compound 0.0316 µM, first compound 0.316 µM
[10] = second compound 0.0316 µM, first compound 1 µM
[11] = second compound 0.0316 µM, first compound 3.16 µM
[12] = second compound 0.0316 µM, first compound 10 µM
[13] = second compound 0.1 µM, first compound 0.0316 µM
[14] = second compound 0.1 µM, first compound 0.1 µM
[15] = second compound 0.1 µM, first compound 0.316 µM
[16] = second compound 0.1 µM, first compound 1 µM
[17] = second compound 0.1 µM, first compound 3.16 µM
[18] = second compound 0.1 µM, first compound 10 µM
[19] = second compound 0.316 µM, first compound 0.0316 µM
[20] = second compound 0.316 µM, first compound 0.1 µM
[21] = second compound 0.316 µM, first compound 0.316 µM
[22] = second compound 0.316 µM, first compound 1 µM
[23] = second compound 0.316 µM, first compound 3.16 µM
[24] = second compound 0.316 µM, first compound 10 µM
[25] = second compound 1 µM, first compound 0.0316 µM
[26] = second compound 1 µM, first compound 0.1 µM
[27] = second compound 1 µM, first compound 0.316 µM
[28] = second compound 1 µM, first compound 1 µM
[29] = second compound 1 µM, first compound 3.16 µM
[30] = second compound 1 µM, first compound 10 µM
[31] = second compound 3.16 µM, first compound 0.0316 µM
[32] = second compound 3.16 µM, first compound 0.1 µM
[33] = second compound 3.16 µM, first compound 0.316 µM
[34] = second compound 3.16 µM, first compound 1 µM
[35] = second compound 3.16 µM, first compound 3.16 µM
[36] = second compound 3.16 µM, first compound 10 µM
[37] = second compound 10 µM, first compound 0.0316 µM
[38] = second compound 10 µM, first compound 0.1 µM
[39] = second compound 10 µM, first compound 0.316 µM
[40] = second compound 10 µM, first compound 1 µM
[41] = second compound 10 µM, first compound 3.16 µM
[42] = second compound 10 µM, first compound 10 µM

## O=C(NO)c1cnc(N2CCN(S(=O)(=O)c3ccc4ccccc4c3)CC2)nc1 + Cc1[nH]c2ccc(F)cc2c1-c1nc2c3cccnc3c3ncccc3c2[nH]1
[1]
  IC50: 381 nM
[2]
  IC50: 450 nM
[3]
  IC50: 539 nM
[4]
  IC50: 617 nM
[5]
  IC50: 660 nM
[6]
  IC50: 801 nM
[7]
  viability, T/C: 100%
[8]
  viability, T/C: 97.1%
[9]
  viability, T/C: 59.4%
[10]
  viability, T/C: 1.37%
[11]
  viability, T/C: 0.22%
[12]
  viability, T/C: 2.18%
[13]
  viability, T/C: 102%
[14]
  viability, T/C: 102%
[15]
  viability, T/C: 67.8%
[16]
  viability, T/C: 9.4%
[17]
  viability, T/C: 0.18%
[18]
  viability, T/C: 0.21%
[19]
  viability, T/C: 104%
[20]
  viability, T/C: 101%
[21]
  viability, T/C: 78%
[22]
  viability, T/C: 17.8%
[23]
  viability, T/C: 0.15%
[24]
  viability, T/C: 1.25%
[25]
  viability, T/C: 105%
[26]
  viability, T/C: 98.1%
[27]
  viability, T/C: 78.8%
[28]
  viability, T/C: 30.1%
[29]
  viability, T/C: 0.16%
[30]
  viability, T/C: 0.2%
[31]
  viability, T/C: 107%
[32]
  viability, T/C: 101%
[33]
  viability, T/C: 74.2%
[34]
  viability, T/C: 38.8%
[35]
  viability, T/C: 0.2%
[36]
  viability, T/C: 0.4%
[37]
  viability, T/C: 106%
[38]
  viability, T/C: 93.5%
[39]
  viability, T/C: 79.4%
[40]
  viability, T/C: 47.4%
[41]
  viability, T/C: 0.29%
[42]
  viability, T/C: 0.25%

## COc1cc(C2c3cc4c(cc3C(OC3OC5COC(C)OC5C(O)C3O)C3COC(=O)C23)OCO4)cc(OC)c1O (stereo not drawn) + CN(C)c1ccc(Nc2c3ccc(NC(=O)CCN4CCCC4)cc3nc3cc(NC(=O)CCN4CCCC4)ccc23)cc1
[1]
  IC50: 1270 nM
[2]
  IC50: 1260 nM
[3]
  IC50: 1310 nM
[4]
  IC50: 732 nM
[5]
  IC50: 652 nM
[6]
  IC50: 619 nM
[7]
  viability, T/C: 107%
[8]
  viability, T/C: 84.8%
[9]
  viability, T/C: 62.9%
[10]
  viability, T/C: 55.2%
[11]
  viability, T/C: 44.8%
[12]
  viability, T/C: 21.6%
[13]
  viability, T/C: 102%
[14]
  viability, T/C: 88.8%
[15]
  viability, T/C: 59.5%
[16]
  viability, T/C: 55%
[17]
  viability, T/C: 44.7%
[18]
  viability, T/C: 21.4%
[19]
  viability, T/C: 87.8%
[20]
  viability, T/C: 78.1%
[21]
  viability, T/C: 59.8%
[22]
  viability, T/C: 59.5%
[23]
  viability, T/C: 40.2%
[24]
  viability, T/C: 18.1%
[25]
  viability, T/C: 87.4%
[26]
  viability, T/C: 75.3%
[27]
  viability, T/C: 54.4%
[28]
  viability, T/C: 48.1%
[29]
  viability, T/C: 36.8%
[30]
  viability, T/C: 20.5%
[31]
  viability, T/C: 86.6%
[32]
  viability, T/C: 74.6%
[33]
  viability, T/C: 49.7%
[34]
  viability, T/C: 48%
[35]
  viability, T/C: 37.4%
[36]
  viability, T/C: 17.6%
[37]
  viability, T/C: 85.9%
[38]
  viability, T/C: 68.5%
[39]
  viability, T/C: 49.1%
[40]
  viability, T/C: 48.7%
[41]
  viability, T/C: 41%
[42]
  viability, T/C: 18.3%

## C=CC(=O)N1CCN(c2nc(=O)n(-c3c(C)ccnc3C(C)C)c3nc(-c4c(O)cccc4F)c(F)cc23)C(C)C1 (stereo not drawn) + Cc1cnc(CNC(=O)c2c(=O)c3ccc(N4CCCN(C)CC4)nc3n3c2sc2ccccc23)cn1
[1]
  IC50: > 10000 nM
[2]
  IC50: > 10000 nM
[3]
  IC50: > 10000 nM
[4]
  IC50: < 31.6 nM
[5]
  IC50: < 31.6 nM
[6]
  IC50: < 31.6 nM
[7]
  viability, T/C: 92.7%
[8]
  viability, T/C: 82.8%
[9]
  viability, T/C: 103%
[10]
  viability, T/C: 103%
[11]
  viability, T/C: 123%
[12]
  viability, T/C: 106%
[13]
  viability, T/C: 62.4%
[14]
  viability, T/C: 66.6%
[15]
  viability, T/C: 76.5%
[16]
  viability, T/C: 77.1%
[17]
  viability, T/C: 85.4%
[18]
  viability, T/C: 70%
[19]
  viability, T/C: 61.9%
[20]
  viability, T/C: 54.8%
[21]
  viability, T/C: 56.5%
[22]
  viability, T/C: 65.9%
[23]
  viability, T/C: 66.9%
[24]
  viability, T/C: 59.3%
[25]
  viability, T/C: 50%
[26]
  viability, T/C: 46.1%
[27]
  viability, T/C: 48.7%
[28]
  viability, T/C: 51.6%
[29]
  viability, T/C: 56.3%
[30]
  viability, T/C: 46.7%
[31]
  viability, T/C: 40.7%
[32]
  viability, T/C: 38.4%
[33]
  viability, T/C: 42.5%
[34]
  viability, T/C: 45.6%
[35]
  viability, T/C: 47%
[36]
  viability, T/C: 41.2%
[37]
  viability, T/C: 0.28%
[38]
  viability, T/C: 2.73%
[39]
  viability, T/C: 1.23%
[40]
  viability, T/C: 2.1%
[41]
  viability, T/C: 3.34%
[42]
  viability, T/C: 0.29%

## CC1COCCN1c1cc(C2(S(C)(=N)=O)CC2)nc(-c2ccnc3[nH]ccc23)n1 (stereo not drawn)
Compound 0.0316 µM
  viability, T/C: 95.4% and 101% (2×)
Compound 0.1 µM
  viability, T/C: 98.2% and 91% and 98.3%
Compound 0.316 µM
  viability, T/C: 96% and 99.7% and 94.1%
Compound 1 µM
  viability, T/C: 86.7% and 83.5% and 77.8%
Compound 3.16 µM
  viability, T/C: 39% and 44.6% and 81.2%
Compound 10 µM
  viability, T/C: 24.2% and 26.8% and 16.7%
Curve of compound
  IC50: 2420 nM and 2690 nM and 5210 nM
